Assay results from US6124342A, “Pharmaceutical compositions containing pyrylium compounds, pyrylium salts and process for manufacturing a medicament containing the aforesaid compounds” (priority 1993, dated 2000).
Where “and” joins values, the source holds several entries; their conditions need not be identical. Equal entries are not always repeated. Where two headings read alike, the source gives them in different places.

Columns and labels:
[1] = Light absorption characteristics without DNA (Table 2); assay type: physicochemical
Source text: (§1) Typical examples of compounds represented by the formula [I] which can be used as the active ingredient in a medicament for the photochemical treatment of cancer according to the present invention are shown in Table 1 below. Almost all the compound shown in Table 2 have their own absorption peaks in the region 600 nm or above, and have molar absorption coefficients as large as 5-8.5×10^4 l/mol.cm which enables more efficient use to be made of the light in photochemical treatment. Furthermore, compound 1 in Table 2 has an absorption peak in the region below 600 nm, but it has sufficiently strong absorption that it still provides better treatment efficiency at wavelength greater than 600 nm.

DNA = assay: Light absorption characteristics under existence of DNA (Table 2); assay type: physicochemical; conditions: with DNA
Source text: as §1

skin of each mouse = assay: Irradiation of the back skin of medicated mice without tumour; assay type: in vivo, nude mice; conditions: for change on irradiation of mice without tumour: group E or E'; for affinity for cancer cells versus normal cells: inferred from group E or E'
Experimental: Ten nude mice having weight 200-400 g were selected, and they were separated into five groups referred to as A, B, C, D and E, each containing two nude mice. Each of the mice was inocculated on its back with KATO III, which is a culture of stomach cancer cells from a human patient. The cancer cells were inocculated into the central part of the back of each mouse, after which the mice were kept for ten days. […] The mice in groups A, B and E were injected with the compound 1 (Y=I) in balanced saline solution through a vein in the leg. […] In group E, a part of every mouse's back was irradiated with the white light. In each case the amount of irradiation was 50J. Thereafter, the cancerous region of each mouse in the group a to D was observed and the skin of each mouse in the group E was observed.

nude mice = assay: Acute toxicity test, intravenous injection; assay type: in vivo; conditions: balanced saline solution; i.v. leg vein; 1 mg/kg; 2 nude mice
Experimental: The compound 1 (Y=I) was dissolved into a balanced saline solution and was injected into each of 2 nude mice of weight 200-400 g through a vein in the leg of the mouse. The amount of solution injected was 1 mg to 1 kg of the weight of each mouse.
The toxicity test of Example 6 was repeated except that the compound 2 was used in place of the compound 1.
The test of Example 6 was repeated except that the compound 1 (Y=I) was dissolved in dimethyl sulfoxide. The amount of solution injected was 1 mg per 1 kg of the mouse's weight. Subsequent injections on further groups of mice were carried out at 5 mg per 1 kg of the mouse's weight and 25 mg per 1 kg of the mouse's weight.
The same test as in Example 8 was carried out except that the active ingredient was compound 2 (Y=I) instead of compound 1.

L-929 cells = assay: Photochemical killing of cultured cancer cells (fluorescence microscope irradiation); conditions: for cytotoxicity at 0.25 µg/mL: read-out: percentage of cells which had died, 0.25 μg/ml; for cytotoxicity at 0.5 µg/mL: read-out: percentage of cells which had died, 0.5 μg/ml; for cell killing without irradiation: compound added, not irradiated; for cytotoxicity at 0.05 µg/mL: read-out: percentage of cells which died, 0.05 μg/ml; for cytotoxicity at 0.075 µg/mL: read-out: percentage of cells which died, 0.075 μg/ml
KATO III [2] = assay: Photochemical treatment of KATO III tumours in nude mice; assay type: in vivo, human; conditions: Tables 6 and 7
Experimental: Ten nude mice having weight 200-400 g were selected, and they were separated into five groups referred to as A, B, C, D and E, each containing two nude mice. Each of the mice was inocculated on its back with KATO III, which is a culture of stomach cancer cells from a human patient. The cancer cells were inocculated into the central part of the back of each mouse, after which the mice were kept for ten days. […] The mice in groups A, B and E were injected with the compound 1 (Y=I) in balanced saline solution through a vein in the leg. The amount of compound 1 which was administered to each mouse was 1 mg per 1 kg of the mouse's weight. Thereafter, the cancerous growth in each mouse in the group A and C was irradiated with white light in which the radiation of wavelength 400 nm or less and radiation of wavelength 1000 nm or above was filtered out. In group E, a part of every mouse's back was irradiated with the white light. In each case the amount of irradiation was 50J. Thereafter, the cancerous region of each mouse in the group a to D was observed and the skin of each mouse in the group E was observed.
The same test as in Example 10 was carried out except that the compound 2 was used in place of the compound 1. the results are shown in Table 7.

cancer cells = assay: Uptake by cancer cells; assay type: cell-based, mice
Experimental: Four such cultures using the same medium were prepared.

KATO III [3] = assay: Deepness of necrotic tumour after irradiation; assay type: in vivo, human; conditions: 1 mg/kg; 580 nm (half-width=20 nm); 10J; one day after irradiation
Experimental: Four nude mice of weight 200-400 g were selected and were separated into groups X and Y, each containing two mice. Next, KATO III was inocculated into every mouse in the same way as in Example 10, after which the mice were kept for three weeks to fix the cancer cells. After three weeks the cancer in each mouse had grown and the size of the cancer was about 13 mm wide, 13 mm long and about 8 mm high. Next the mice in group X were injected via the leg with a balanced saline solution of the compound 1, and the mice of Group Y were injected with a balanced saline solution of the compound 16 via the leg. The dose of the compound 1 or 16 was adjusted to be 1 mg of the compound 1 or the compound 16 per 1 kg of the mouse's weight. Subsequently, the mice in group X were irradiated with radiation of wavelength 580 nm (half-width=20 nm) which was separated by means of a filter, and the mice in group Y were irradiated with radiation having a wavelength 720 nm (half-width=20 nm) which was separated with a filter. The amount of energy irradiated was 10J. One day after the irradiation the depth of the tumour which had become necrotic was measured.

[4] = Mus musculus, L929, 12 h, 3 min, 560-610 nm, Y=I
[5] = Mus musculus, L929, 12 h, 5 min, 560-610 nm, Y=I
[6] = Mus musculus, L929, 1 min, 1 min, 600-650 nm, Y=I
[7] = Mus musculus, L929, 0.05 h, 3 min, 600-650 nm, Y=I
[8] = Mus musculus, L929, 5 min, 5 min, 600-650 nm, Y=I

SMILES	Absorption (max) Peak Under no existence of DNA [1]	Absorption (max) Peak Under existence of DNA (DNA)	Molar absorption coefficient ε [1]	change on irradiation of mice without tumour (skin of each mouse)	affinity for cancer cells versus normal cells (skin of each mouse)	adverse effects (acute toxicity) (nude mice)	cell killing without irradiation (L-929 cells)	effectiveness in photochemical treatment of human cancer cells growing in live mice (KATO III [2])	also measured
CN(C)c1ccc(C=Cc2cc(-c3ccccc3)cc(-c3ccccc3)[s+]2)cc1 [Compound 8]	650 nm	610 nm							
Cc1cc(-c2ccc(N(C)C)cc2)cc(-c2ccc(N(C)C)cc2)[o+]1 [Compound 1, 2-methyl-4,6-bis-(4-N,N-dimethylaminophenyl) pyrylium iodide]	540 nm	580 nm	84600 L/mol/cm	no change was observed	different from the affinity	no adverse effects	not killed and continued to grow in culture	effective in the photochemical treatment of human cancer cells growing in live mice	absorption peak region ([1]; Table 2): below 600 nm; Change of skin (skin of each mouse; Table 6, group E: 1 mg/kg i.v., irradiated 50J): No Change; effectiveness to kill cancer cells (L-929 cells; 0.1-0.5 μg/ml, irradiation 1-5 minutes): effective to kill cancer cells; cytotoxicity at 0.1 µg/mL (L-929 cells; Mus musculus, L929, 12 h, read-out: percentage of cells which had died, 0.1 μg/ml, 5 min, 560-610 nm, Y=I): 100%; cytotoxicity at 0.25 µg/mL (L-929 cells; [4]): ~100%; cytotoxicity at 0.25 µg/mL (L-929 cells; [5]): 100%; cytotoxicity at 0.5 µg/mL (L-929 cells; Mus musculus, L929, 12 h, 1 min, 560-610 nm, Y=I): ~90%; cytotoxicity at 0.5 µg/mL (L-929 cells; [4]): ~100%; cytotoxicity at 0.5 µg/mL (L-929 cells; [5]): 100%; uptake by the cancer cells (cancer cells): rapid; Deepness of died tumour (KATO III [3]): 4.5 mm and 4.8 mm
Cc1cc(-c2ccc(N(C)C)cc2)cc(-c2ccc(N(C)C)cc2)[s+]1 [Compound 2, 2-methyl-4,6-bis-(4-N,N-dimethylaminophenyl)thiopyrylium iodide]	580 nm	620 nm	49500 L/mol/cm	no change was observed	different from the affinity	no ill effects	not killed and continued to grow in culture	effective in the photochemical treatment of human cancer cells growing in live mice	Change of skin (skin of each mouse; Table 7, group E': medicated, irradiated): No Change; cytotoxicity at 0.05 µg/mL (L-929 cells; [6]): ~10%; cytotoxicity at 0.075 µg/mL (L-929 cells; [6]): 80%; cytotoxicity at 0.1 µg/mL (L-929 cells; Mus musculus, L929, 1 min, read-out: percentage of cells which died, 0.1 μg/ml, 1 min, 600-650 nm, Y=I): 100%; cytotoxicity at 0.05 µg/mL (L-929 cells; [7]): 80%; cytotoxicity at 0.075 µg/mL (L-929 cells; [7]): 100%; cytotoxicity at 0.1 µg/mL (L-929 cells; Mus musculus, L929, 0.05 h, read-out: percentage of cells which died, 0.1 μg/ml, 3 min, 600-650 nm, Y=I): 100%; cytotoxicity at 0.025 µg/mL (L-929 cells; Mus musculus, L929, 5 min, read-out: percentage of cells which died, 0.025 μg/ml, 5 min, 600-650 nm, Y=I): ~50%; cytotoxicity at 0.05 µg/mL (L-929 cells; [8]): 100%; cytotoxicity at 0.075 µg/mL (L-929 cells; [8]): 100%; cytotoxicity at 0.1 µg/mL (L-929 cells; Mus musculus, L929, 5 min, read-out: percentage of cells which died, 0.1 μg/ml, 5 min, 600-650 nm, Y=I): 100%; killing effect compared with another compound (L-929 cells; with irradiation): greater killing effect than compound 1

Continued, in another order:

Absorption (max) Peak Under no existence of DNA [1]	Absorption (max) Peak Under existence of DNA (DNA)	SMILES	Molar absorption coefficient ε [1]	change on irradiation of mice without tumour (skin of each mouse)	affinity for cancer cells versus normal cells (skin of each mouse)	adverse effects (acute toxicity) (nude mice)	cell killing without irradiation (L-929 cells)	effectiveness in photochemical treatment of human cancer cells growing in live mice (KATO III [2])	also measured
690 nm	720 nm	CCN(CC)c1ccc(C=Cc2ccc(C=Cc3cc(-c4ccccc4)cc(-c4ccccc4)[o+]3)cc2)cc1 [Compound 17]							
660 nm	720 nm	CN(C)c1ccc(C=CC=Cc2cc(-c3ccccc3)[o+]c(-c3ccccc3)c2)cc1 [Compound 9]							
625 nm	660 nm	CN(C)c1ccc(C=CC(C=Cc2ccc(N(C)C)cc2)=Cc2cc(-c3ccccc3)[o+]c(-c3ccccc3)c2)cc1 [Compound 11]							
